Laboratory results published in patent US20220340687A1 (NOVARTIS AG, priority 2019, published 2022).

How the values were obtained:
Type in all cases: cell-based, human
[1] = tested on: pDCs cocultured with naïve CD4+ T cells; experiment: Blocking experiments (IDO, PD-L1, IFN-α) on Treg cells generation by pDCs in coculture; conditions: added to the coculture; p=0.07
Source text: Additionally, it is claimed that IFN-α itself induces the generation of Treg cells.

[2] = tested on: pDCs cocultured with naïve CD4+ T cells; experiment: Generation of Treg cells by pDCs: omalizumab in comparison to corticosteroids; conditions: 5 or 10 mg/mL of omalizumab for 24 hours before crosslinker and TLR9-L; coculture 5 days
Protocol: After 24 hours, the pDCs were washed and cocultured with naïve CD4+ T cells for 5 days.

pDCs [3] = experiment: Cytokine signature of TLR9-L-activated pDCs under IgE-FcεR1-crosslinker (ELISA); conditions: omalizumab 10 mg/mL 24 hours prior to crosslinker and TLR9-L, ELISA 24 hours after activation, compared to crosslinker condition
Protocol: Then, the cytokine profile was analysed by ELISA 24 hours after activation.

pDCs [4] = experiment: Viability of pDCs after incubation with Oma; conditions: 24 hours incubation with Oma
Protocol: (§1) A) Left: Frequency of FcεR1α-bound IgE+ cells gated in pDCs. Right: Frequency of cells with unoccupied FcεR1, gated in pDCs (n=4). B) Viability of pDCs after 24 hours incubation with Oma (n=2). Values are given as mean±SEM. **p<0.01, *p<0.05 in paired t-test comparing multiple conditions.

[5] = tested on: IgE bound to FcεR1 on pDCs; experiment: Removal of membrane-bound IgE from purified pDCs; conditions: pDCs from atopic donors, IL-3, 5, 10 and mg/mL of Oma, 24 hours
Protocol: as §1

Chain of IgE bound to FcεR1 on pDCs (P01854 1-428 isoform P01854-1): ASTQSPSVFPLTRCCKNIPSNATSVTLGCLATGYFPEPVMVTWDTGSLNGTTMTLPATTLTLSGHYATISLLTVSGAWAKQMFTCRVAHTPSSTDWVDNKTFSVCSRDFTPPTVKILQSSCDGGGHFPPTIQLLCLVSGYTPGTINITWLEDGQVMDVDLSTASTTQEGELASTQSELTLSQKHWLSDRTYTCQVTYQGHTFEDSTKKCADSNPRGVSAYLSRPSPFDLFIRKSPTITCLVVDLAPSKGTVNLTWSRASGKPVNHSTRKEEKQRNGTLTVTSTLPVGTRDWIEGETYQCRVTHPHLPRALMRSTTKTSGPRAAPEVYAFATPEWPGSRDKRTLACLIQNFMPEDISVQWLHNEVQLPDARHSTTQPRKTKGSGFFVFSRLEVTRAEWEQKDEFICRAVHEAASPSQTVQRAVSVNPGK

Row | Compound | pDCs capacity to induce Treg cells under IgE-FcεR1-crosslinker condition [1] | crosslinker-induced decrease of the frequency of induced Treg cells [2] | TNF-α levels (pDCs [3]; p=0.04) | pDCs capacity to produce IFN-α (pDCs [3]; p=0.05) | pDCs viability (pDCs [4]) | IgE bound to FcεR1 on pDCs (IgE mean fluorescence intensity, MFI) [5] | frequency of pDCs with FcεR1-bound IgE (FcεR1+IgE+pDCs) [5] | levels of pDCs with unoccupied FcεR1 (FcεR1+IgE-pDCs) [5]
1 | Nc1ccccc1C(=O)CC(N)C(=O)O (centres unmarked) [kyn, kynurenine] | increased | – | – | – | – | – | – | –
2 | Omalizumab: recombinant DNA-derived humanized monoclonal antibody that selectively binds to free, circulating human immunoglobulin E (IgE) | – | reverted by Omalizumab in a dose dependent manner | retained low TNF-α levels | restored pDCs capacity to produce IFN-α | did not affect pDCs viability | decrease in IgE mean fluorescence intensity (MFI) in a dose-dependent manner | significant reduction | increased levels
